The target of one data set is T1, UGT2B15 (Homo sapiens, UniProt P54855).
T1 construct: purchased Corning, NY, USA (through DIAG-MED, Poland); host or cells: baculovirus-insect cells (Supersomes)
T1 sequence (P54855 24-530): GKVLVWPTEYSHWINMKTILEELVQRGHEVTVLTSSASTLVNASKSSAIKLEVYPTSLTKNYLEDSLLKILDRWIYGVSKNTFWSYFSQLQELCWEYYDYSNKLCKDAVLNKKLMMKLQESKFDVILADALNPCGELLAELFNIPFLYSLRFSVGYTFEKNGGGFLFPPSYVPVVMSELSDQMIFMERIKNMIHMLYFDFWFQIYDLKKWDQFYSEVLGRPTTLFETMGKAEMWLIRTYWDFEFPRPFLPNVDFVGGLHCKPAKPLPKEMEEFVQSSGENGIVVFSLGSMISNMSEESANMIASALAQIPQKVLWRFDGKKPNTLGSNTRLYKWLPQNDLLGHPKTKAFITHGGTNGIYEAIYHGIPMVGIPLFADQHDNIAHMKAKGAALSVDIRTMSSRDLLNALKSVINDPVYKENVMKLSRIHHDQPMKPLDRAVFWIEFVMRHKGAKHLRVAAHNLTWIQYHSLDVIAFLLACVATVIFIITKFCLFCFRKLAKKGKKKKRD
The data set can be described thus: Modulation of UGT2B15 activity (TFK glucuronidation). It is filed as in vitro ADME. To be noted: UGT2B15 isoenzyme preparation, pH 7.4, probe TFK, TFK substrate. The procedure:
(§1) Isoenzyme activity was studied by the rate measurement of β-hydroxylation of testosterone (specific substrate for P4503A4) and of glucuronidation of specific substrates, namely, SN-38 (UGT1A1), EPI (UGT2B7),) and TFK (UGT2B15). All substrate and drug solutions were prepared as 10 mM stock solutions in DMSO and were diluted in […] (pH 7.4). The mixture containing isoenzymes P4503A4/UGT (0.5 mg/mL), probe substrate (0.1 mM), cofactor 2 mM NADPH/5 mM UDPGA and the increasing concentrations of tested UA (0, 0.01, 0.02 and 0.05 mM) was incubated in the reaction buffer containing (i) for P4503A4 0.1 M HEPES, 88 mM MgCl2 and (ii) for UGT 0.1 M HEPES, 88 mM MgCl2, 25 μg/mL alamethicin at 37 °C for 30 min and were terminated by adding 8.75 µL of 0.1 M HCl. The samples were placed in ice for 10 min and centrifuged (10 min, 13,400 rpm). Supernatant fractions were analyzed by HPLC. For more accurate investigation of P4503A4 inhibition by C-2045 and C-2053 the β-hydroxylation rate was measured at various concentrations of testosterone: 0.02, 0.05, 0.1 and 0.2 mM. The inhibitor (UA) concentrations were 0, 0.001, 0.005 and 0.01 mM, whereas the incubation time 30 min and concentration of P4503A4 (0.5 mg/mL).

A further data set deals with T2, UGT1A1 (Homo sapiens, UniProt P22309).
T2 sequence (P22309 26-533): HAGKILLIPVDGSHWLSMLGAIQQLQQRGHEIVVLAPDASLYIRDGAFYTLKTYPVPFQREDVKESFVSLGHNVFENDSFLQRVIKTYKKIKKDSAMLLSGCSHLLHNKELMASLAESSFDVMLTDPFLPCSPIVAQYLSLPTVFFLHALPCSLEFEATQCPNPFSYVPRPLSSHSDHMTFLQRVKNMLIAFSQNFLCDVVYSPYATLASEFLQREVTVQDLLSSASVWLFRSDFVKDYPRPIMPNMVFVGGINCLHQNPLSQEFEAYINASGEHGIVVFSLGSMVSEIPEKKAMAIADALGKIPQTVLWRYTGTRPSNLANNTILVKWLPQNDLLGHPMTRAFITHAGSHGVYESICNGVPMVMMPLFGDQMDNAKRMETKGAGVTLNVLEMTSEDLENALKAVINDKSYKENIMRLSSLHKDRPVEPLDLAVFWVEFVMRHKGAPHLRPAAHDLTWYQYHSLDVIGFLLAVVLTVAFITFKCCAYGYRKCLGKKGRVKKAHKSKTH
The data set can be described thus: Modulation of UGT1A1 activity (SN-38 glucuronidation). The class given is in vitro ADME. Also on record: purchased Corning, NY, USA (through DIAG-MED, Poland); host or cells: baculovirus-insect cells (Supersomes). To be noted: SN-38 substrate. Here is the method:
as §1

For the next data set, the system named is HCT-116-UGT1A10 cells. The data set can be described thus: Drug metabolism in HCT-116 cells transfected with UGT1A10. The class given is cell-based, human. Conditions: HCT-116 overexpressing UGT1A10, 50 μM, medium and cell extract, 24 and 72 h. The procedure:
To analyze the transformation products of UAs in colon tumor cell lines, HCT-116 or HT-29 cells were plated in 60 mm Petri dishes; after reaching 80% of confluence, cells were treated with 5/25/50 μM of C-2028, C-2045 or C-2053 (prepared as 10 or 2 mM stock solutions in water) for specified time. Half of medium was added to acetonitrile (1:1, v/v), centrifuged (12 min, 13,400 rpm, 4 °C) and the supernatant was analyzed by HPLC (post-culture medium). Cells remaining on the Petri dishes were collected by gentle scraping, sedimented, washed with ice-cold PBS, suspended in ice-cold chloroform and lysed by sonication for 15 min. After 1 h on ice, insoluble material was removed by centrifugation at 13,000 rpm for 20 min at 4 °C. The sediment was discarded and supernatant (chloroform) were evaporated under pressure. Then, sample was suspended in ice-cold 60% methanol and directly analyzed by HPLC (cell extract).

What is called inhibition is the share of the control response that was lost under treatment.

Regarding `CN(CCCNc1c2ccccc2nc2cccc([N+](=O)[O-])c12)CCCNc1ccc2ncn3c4ccccc4c(=O)c1c23` [C-2028], the inhibition at 30 min, 0.05 mM on UGT2B15 (highest concentration) is 80%. For the same molecule, the inhibition at 30 min is approximately 30% at UGT2B15 (lowest concentrations) and 65 to 70% on UGT1A1 (human, UGT1A1 isoenzyme preparation, pH 7.4, probe SN-38, higher concentrations of compound, read-out: inhibition rate of UGT1A1). Besides, the “activity decrease of UGT1A1” value at UGT1A1 (low concentrations of compound) worked out at 77%.
For `Cc1ccc([N+](=O)[O-])c2c(NCCCN(C)CCCNc3ccc4ncn5c6ccc(O)cc6c(=O)c3c45)c3ccccc3nc12` [C-2045], the “metabolite formation in cells” value in the data set on HCT-116-UGT1A10 cells was “metabolized the substrate to the derivative, which was found in the cell medium rather than in the cell extract”.

The record behind these values is article PMC8066102, “Metabolic Profiles of New Unsymmetrical Bisacridine Antitumor Agents in Electrochemical and Enzymatic Noncellular Systems and in Tumor Cells” (Pharmaceuticals, 2021).
